Several values for one entry are separate records, joined by “and”; a condition that tells them apart may be missing. Equal entries are not always repeated.
Columns and labels:
[1] = system: experimental maliganancies; details: background; cited from earlier work
[2] = system: Gardner lymphosarcoma (GLS); assay: Transplanted tumor GLS in mice, percent inhibition of tumor growth or percent prolongation of survival time; format: in vivo
Experimental: (§1) The compounds of this invention are antimitotic agents being active in tissue culture and against transplanted tumors in mice.
(§2) The following table -- Table 1 -- gives the results of several experiments in which mice bearing transplanted tumors were treated successfully with a compound of this invention. The following abbreviations are employed: Compound A is 5'-acetonylvincristine sulfate; B and C are the corresponding dehydrated hemiketal sulfate and free base; D is 4-desacetyl-5'-acetonylvincristine; GLS is Gardner lymphosarcoma; ROS is Ridgeway Osteogenic Sarcoma and CA755 is an adenocarcinoma. In the table, column 1 gives the compound designation; column 2, the abbreviation of the name of transplanted tumor; column 3, the dose level and the number of days that dosage was administered; and column 4, the percent inhibition of tumor growth or percent prolongation of survival time

[3] = system: Ridgeway Osteogenic Sarcoma (ROS); assay: Transplanted tumor ROS in mice, percent inhibition of tumor growth or percent prolongation of survival time; format: in vivo
Experimental: as §1, §2

CA755 (adenocarcinoma) = assay: Transplanted tumor CA755 in mice, percent inhibition of tumor growth or percent prolongation of survival time; format: in vivo
Experimental: as §1, §2

[4] = 0.05 mg/kg × 9 days, marked *: not statistically significantly different from control
[5] = 0.3 mg/kg × 7 days, marked *: not statistically significantly different from control

SMILES: CCC1(O)CN2CCc3c([nH]c4ccccc34)C(C(=O)OC)(c3cc4c(cc3OC)N(C)C3C(O)(C(=O)OC)CC5(CC)C=CCN6CCC43C65)CC(C2)C1O (centres unmarked) [4-desacetoxy-3'-hydroxyvinblastine]
- activity in the treatment of experimental malignancies in animals [1]: active

SMILES: CC[C@]1(O)C[C@H]2CN(CCc3c([nH]c4ccccc34)[C@@](C(=O)OC)(c3cc4c(cc3OC)N(C)[C@@H]3[C@]45CCN4CC=C[C@@](CC)(C[C@]3(O)C(=O)OC)[C@H]45)C2)C1 [4-desacetoxyvinblastine]
- activity in the treatment of experimental malignancies in animals [1]: active

SMILES: CCC12CC3CN(CCc4c([nH]c5ccccc45)C(C(=O)OC)(c4cc5c(cc4OC)N(C=O)C4C(O)(C(=O)OC)C(OC(C)=O)C6(CC)C=CCN7CCC54C76)C3)C1C=C(C)O2.O=S(=O)(O)O (centres unmarked) [B, 2",3"-dehydro-5'-acetonylvincristine 1",2"-hemiketal]
- percent inhibition of tumor growth or percent prolongation of survival time [2, 4]: 13%
- percent inhibition of tumor growth or percent prolongation of survival time ([2]; 0.1 mg/kg × 7 days): 0%
- percent inhibition of tumor growth or percent prolongation of survival time ([2]; 0.1 mg/kg × 9 days, marked *: not statistically significantly different from control): 21%
- percent inhibition of tumor growth or percent prolongation of survival time ([2]; 0.2 mg/kg × 7 days, marked *: not statistically significantly different from control): 21%
- percent inhibition of tumor growth or percent prolongation of survival time ([2]; 0.2 mg/kg × 9 days, marked *: not statistically significantly different from control): 8%
- percent inhibition of tumor growth or percent prolongation of survival time [2, 5]: 22% and 37%
- percent inhibition of tumor growth or percent prolongation of survival time ([2]; 0.3 mg/kg × 9 days): 36%
- percent inhibition of tumor growth or percent prolongation of survival time ([2]; 0.5 mg/kg × 7 days): 54% and 39% and 59%
- percent inhibition of tumor growth or percent prolongation of survival time ([2]; 0.5 mg/kg × 9 days): 71%
- percent inhibition of tumor growth or percent prolongation of survival time ([2]; 1.0 mg/kg × 7 days): 100% and 76% and 96%
- percent inhibition of tumor growth or percent prolongation of survival time ([2]; 1.0 mg/kg × 9 days): 93%
- percent inhibition of tumor growth or percent prolongation of survival time ([2]; 5.0 mg/kg × 7 days): 100%
- percent inhibition of tumor growth or percent prolongation of survival time ([3]; 0.1 mg/kg × 10 days): 39%
- percent inhibition of tumor growth or percent prolongation of survival time ([3]; 0.2 mg/kg × 10 days): 26%
- percent inhibition of tumor growth or percent prolongation of survival time ([3]; 0.3 mg/kg × 10 days, marked *: not statistically significantly different from control): 14%
- percent inhibition of tumor growth or percent prolongation of survival time ([3]; 0.5 mg/kg × 10 days, marked *: not statistically significantly different from control): 0%
- percent inhibition of tumor growth or percent prolongation of survival time ([3]; 1.0 mg/kg × 10 days, marked *: not statistically significantly different from control): 0%

SMILES: CCC12CC3CN(CCc4c([nH]c5ccccc45)C(C(=O)OC)(c4cc5c(cc4OC)N(C=O)C4C(O)(C(=O)OC)C(OC(C)=O)C6(CC)C=CCN7CCC54C76)C3)C1C=C(C)O2 (centres unmarked) [C, 2",3"-dehydro-5'-acetonylvincristine 1",2"-hemiketal]
- percent inhibition of tumor growth or percent prolongation of survival time ([2]; 0.5 mg/kg × 7 days): 57%
- percent inhibition of tumor growth or percent prolongation of survival time ([2]; 0.5 mg/kg × 7 days, marked *: not statistically significantly different from control): 2%
- percent inhibition of tumor growth or percent prolongation of survival time ([2]; 1.0 mg/kg × 7 days): 100%
- percent inhibition of tumor growth or percent prolongation of survival time ([2]; 1.0 mg/kg × 7 days, marked *: not statistically significantly different from control): 5%
- percent inhibition of tumor growth or percent prolongation of survival time ([2]; 5.0 mg/kg × 7 days): 100%

SMILES: CCC1(O)CC2CN(CCc3c([nH]c4ccccc34)C(C(=O)OC)(c3cc4c(cc3OC)N(C=O)C3C(O)(C(=O)OC)C(OC(C)=O)C5(CC)C=CCN6CCC43C65)C2)C1CC(C)=O.O=S(=O)(O)O (centres unmarked) [Compound A, 5'-acetonylvincristine sulfate]
- percent inhibition of tumor growth or percent prolongation of survival time (CA755 (adenocarcinoma); 0 mg/kg × 8 days (so in the source)): 39%
- percent inhibition of tumor growth or percent prolongation of survival time (CA755 (adenocarcinoma); 0.3 mg/kg × 8 days, marked *: not statistically significantly different from control): 21%
- percent inhibition of tumor growth or percent prolongation of survival time (CA755 (adenocarcinoma); 0.5 mg/kg × 8 days): 39%
- percent inhibition of tumor growth or percent prolongation of survival time (CA755 (adenocarcinoma); 5.0 mg/kg × 8 days): 34%
- percent inhibition of tumor growth or percent prolongation of survival time [2, 4]: 8%
- percent inhibition of tumor growth or percent prolongation of survival time ([2]; 0.3 mg/kg × 7-9 days): 39%
- percent inhibition of tumor growth or percent prolongation of survival time ([2]; 0.3 mg/kg × 7-9 days, marked *: not statistically significantly different from control): 13%
- percent inhibition of tumor growth or percent prolongation of survival time ([2]; 0.5 mg/kg × 7-9 days): 49% and 65%
- percent inhibition of tumor growth or percent prolongation of survival time ([2]; 1.0 mg/kg × 7-9 days): 81% and 86%
- toxicity ([3]; 0.05 mg/kg × 10 days): TOXIC
- percent inhibition of tumor growth or percent prolongation of survival time ([3]; 0.1 mg/kg × 10 days): 0%
- percent inhibition of tumor growth or percent prolongation of survival time ([3]; 0.2 mg/kg × 10 days): 60%
- percent inhibition of tumor growth or percent prolongation of survival time ([3]; 0.3 mg/kg × 10 days): 34%
- toxicity ([3]; 0.5 mg/kg × 10 days): TOXIC
- toxicity ([3]; 1.0 mg/kg × 10 days): TOXIC

SMILES: CCC1(O)CC2CN(CCc3c([nH]c4ccccc34)C(C(=O)OC)(c3cc4c(cc3OC)N(C=O)C3C(O)(C(=O)OC)C(O)C5(CC)C=CCN6CCC43C65)C2)C1CC(C)=O (centres unmarked) [D, 4-desacetyl-5'-acetonylvincristine]
- percent inhibition of tumor growth or percent prolongation of survival time [2, 5]: 0%
- percent inhibition of tumor growth or percent prolongation of survival time ([2]; 0.5 mg/kg × 7 days): 37% and 26%
- percent inhibition of tumor growth or percent prolongation of survival time ([2]; 1.0 mg/kg × 7 days): 100% and 62%

SMILES: CC[C@]1(O)C[C@@H]2CN(CCc3c([nH]c4ccccc34)[C@@](C(=O)OC)(c3cc4c(cc3OC)N(C)[C@H]3[C@@](O)(C(=O)OC)[C@H](OC(C)=O)[C@]5(CC)C=CCN6CC[C@]43[C@@H]65)C2)C1 [VLB, vincaleukoblastine]
- activity in the treatment of experimental malignancies in animals [1]: active

SMILES: CCC1CC2CN(CCc3c([nH]c4ccccc34)C(C(=O)OC)(c3cc4c(cc3OC)N(C)C3C(O)(C(=O)OC)C(OC(C)=O)C5(CC)C=CCN6CCC43C65)C2)C1 (centres unmarked) [deoxy VLB "A"]
- activity in the treatment of experimental malignancies in animals [1]: active

SMILES: CCC1(O)CN2CCc3c([nH]c4ccccc34)C(C(=O)OC)(c3cc4c(cc3OC)N(C)C3C(O)(C(=O)OC)C(OC(C)=O)C5(CC)C=CCN6CCC43C65)CC(O)(C2)C1 (centres unmarked) [leurocolombine]
- activity in the treatment of experimental malignancies in animals [1]: active

SMILES: CC[C@]1(O)C[C@H]2CN(CCc3c([nH]c4ccccc34)[C@@](C(=O)OC)(c3cc4c(cc3OC)N(C=O)[C@H]3[C@@](O)(C(=O)OC)[C@H](OC(C)=O)[C@]5(CC)C=CCN6CC[C@]43[C@@H]65)C2)C1 [leurocristine]
- activity in the treatment of experimental malignancies in animals [1]: active

SMILES: CC[C@]12CN3CCc4c([nH]c5ccccc45)[C@@](C(=O)OC)(c4cc5c(cc4OC)N(C=O)[C@H]4[C@@](O)(C(=O)OC)[C@H](OC(C)=O)[C@]6(CC)C=CCN7CC[C@]54[C@@H]76)C[C@@H](C3)[C@H]1O2 [leuroformine, N-formylleurosine]
- activity in the treatment of experimental malignancies in animals [1]: active

SMILES: CC[C@@]1(O)C[C@@H]2CN(CCc3c([nH]c4ccccc34)[C@@](C(=O)OC)(c3cc4c(cc3OC)N(C)[C@H]3[C@@](O)(C(=O)OC)[C@H](OC(C)=O)[C@]5(CC)C=CCN6CC[C@]43[C@@H]65)C2)C1 [leurosidine]
- activity in the treatment of experimental malignancies in animals [1]: active

SMILES: CC[C@]12CN3CCc4c([nH]c5ccccc45)[C@@](C(=O)OC)(c4cc5c(cc4OC)N(C)[C@H]4[C@@](O)(C(=O)OC)[C@H](OC(C)=O)[C@]6(CC)C=CCN7CC[C@]54[C@@H]76)C[C@H](C3)[C@H]1O2 [leurosine]
- activity in the treatment of experimental malignancies in animals [1]: active

SMILES: CCC1(O)CN2CCc3c([nH]c4ccccc34)C(C(=O)OC)(c3cc4c(cc3OC)N(C)C3C(O)(C(=O)OC)C(OC(C)=O)C5(CC)C=CCN6CCC43C65)CC(C2)C1O (centres unmarked) [vincadioline]
- activity in the treatment of experimental malignancies in animals [1]: active
